In the NIST ThermoML archive (doi:10.1016/j.jct.2016.12.037):

Assay: xn = mol fraction of the nth substance listed
Settings: Liquid; for viscosity: Concentric cylinders viscometry

CCCC[n+]1ccn(C)c1.O=S(=O)([N-]S(=O)(=O)C(F)(F)F)C(F)(F)F + CCCCn1cc[n+](C)c1.[Cl-]
viscosity [mPa·s], 100 kPa
Settings | 293.15 K | 303.15 K | 313.15 K | 323.15 K | 333.15 K | 343.15 K | 353.15 K | 363.15 K | 373.15 K
x2 = 0 | 63.41 | 41.26 | 28.46 | 20.58 | 15.47 | 12 | 9.562 | 7.788 | 6.469
x2 = 0.25 | 150.8 | 89.81 | 57.25 | 38.43 | 27.37 | 20.16 | 15.34 | 12.03 | 9.638
x2 = 0.5 | 489.6 | 255.5 | 144.8 | 87.69 | 57.22 | 39.08 | 27.82 | 20.61 | 15.7
x2 = 0.75 | – | 1095 | 513 | 265.5 | 150.4 | 91.4 | 58.87 | 40.11 | 28.43

mass density [kg/m3]
Settings | x2 = 0 | x2 = 0.25 | x2 = 0.5 | x2 = 0.75
293.15 K, 100 kPa, Vibrating tube method | 1440.9 | 1383.3 | 1310.1 | –
303.15 K, 100 kPa, Vibrating tube method | 1431.6 | 1374.4 | 1301.8 | 1207.9
312.3 K, 10000 kPa, Bellows volumetry | – | 1373.1 | 1300.2 | 1205.8
312.3 K, 20000 kPa, Bellows volumetry | – | 1379.8 | 1306.1 | 1210.5
312.3 K, 30000 kPa, Bellows volumetry | – | 1386 | 1311.7 | 1215
312.3 K, 40000 kPa, Bellows volumetry | – | 1392 | 1317 | 1219.3
312.3 K, 50000 kPa, Bellows volumetry | – | 1397.7 | 1322.1 | 1223.6
312.3 K, 60000 kPa, Bellows volumetry | – | 1403.3 | 1326.9 | 1227.7
312.3 K, 70000 kPa, Bellows volumetry | – | 1408.6 | 1331.6 | 1231.6
312.3 K, 80000 kPa, Bellows volumetry | – | 1413.7 | 1336.2 | 1235.5
312.3 K, 90000 kPa, Bellows volumetry | – | 1418.5 | 1340.5 | 1239.2
312.3 K, 100000 kPa, Bellows volumetry | – | 1423.4 | 1344.8 | 1242.8
312.3 K, 110000 kPa, Bellows volumetry | – | 1428.1 | 1349.1 | 1246.4
312.3 K, 120000 kPa, Bellows volumetry | – | 1432.6 | 1353.1 | 1249.9
312.3 K, 130000 kPa, Bellows volumetry | – | 1437.1 | 1357.1 | 1253.3
312.3 K, 140000 kPa, Bellows volumetry | – | 1441.3 | 1360.9 | 1256.6
312.3 K, 150000 kPa, Bellows volumetry | – | 1445.6 | 1364.7 | 1260
312.3 K, 160000 kPa, Bellows volumetry | – | 1449.7 | 1368.4 | 1263.1
312.3 K, 170000 kPa, Bellows volumetry | – | 1453.8 | 1372.2 | 1266.3
312.3 K, 180000 kPa, Bellows volumetry | – | 1457.7 | 1375.8 | 1269.4
312.3 K, 190000 kPa, Bellows volumetry | – | 1461.7 | 1379.3 | 1272.4
312.3 K, 200000 kPa, Bellows volumetry | – | 1465.4 | 1382.7 | 1275.5
313.15 K, 100 kPa, Vibrating tube method | 1422.1 | 1365.6 | 1293.9 | 1200.6
323.15 K, 100 kPa, Vibrating tube method | 1412.6 | 1356.8 | 1286 | 1193.6
331.8 K, 10000 kPa, Bellows volumetry | – | 1356.2 | 1285.2 | 1192.4
331.8 K, 20000 kPa, Bellows volumetry | – | 1363.2 | 1291.3 | 1197.3
331.8 K, 30000 kPa, Bellows volumetry | – | 1369.9 | 1297.1 | 1202.1
331.8 K, 40000 kPa, Bellows volumetry | – | 1376.2 | 1302.7 | 1206.7
331.8 K, 50000 kPa, Bellows volumetry | – | 1382.2 | 1307.9 | 1211.1
331.8 K, 60000 kPa, Bellows volumetry | – | 1388 | 1313 | 1215.5
331.8 K, 70000 kPa, Bellows volumetry | – | 1393.5 | 1318 | 1219.5
331.8 K, 80000 kPa, Bellows volumetry | – | 1398.9 | 1322.8 | 1223.6
331.8 K, 90000 kPa, Bellows volumetry | – | 1404 | 1327.2 | 1227.4
331.8 K, 100000 kPa, Bellows volumetry | – | 1408.9 | 1331.6 | 1231.2
331.8 K, 110000 kPa, Bellows volumetry | – | 1413.9 | 1336.1 | 1235
331.8 K, 120000 kPa, Bellows volumetry | – | 1418.5 | 1340.4 | 1238.5
331.8 K, 130000 kPa, Bellows volumetry | – | 1423.2 | 1344.4 | 1242
331.8 K, 140000 kPa, Bellows volumetry | – | 1427.6 | 1348.5 | 1245.4
331.8 K, 150000 kPa, Bellows volumetry | – | 1432 | 1352.3 | 1248.7
331.8 K, 160000 kPa, Bellows volumetry | – | 1436.3 | 1356.2 | 1252.1
331.8 K, 170000 kPa, Bellows volumetry | – | 1440.5 | 1359.9 | 1255.3
331.8 K, 180000 kPa, Bellows volumetry | – | 1444.5 | 1363.8 | 1258.5
331.8 K, 190000 kPa, Bellows volumetry | – | 1448.5 | 1367.3 | 1261.6
331.8 K, 200000 kPa, Bellows volumetry | – | 1452.6 | 1371 | 1264.7
333.15 K, 100 kPa, Vibrating tube method | 1403.4 | 1348.2 | 1278.3 | 1186.8
343.15 K, 100 kPa, Vibrating tube method | 1394 | 1339.6 | 1270.6 | 1180.2
351.9 K, 10000 kPa, Bellows volumetry | – | 1339.5 | 1270.2 | 1179
351.9 K, 20000 kPa, Bellows volumetry | – | 1346.9 | 1276.5 | 1184.3
351.9 K, 30000 kPa, Bellows volumetry | – | 1354 | 1282.7 | 1189.3
351.9 K, 40000 kPa, Bellows volumetry | – | 1360.6 | 1288.5 | 1194.1
351.9 K, 50000 kPa, Bellows volumetry | – | 1366.9 | 1294.1 | 1198.8
351.9 K, 60000 kPa, Bellows volumetry | – | 1373 | 1299.5 | 1203.2
351.9 K, 70000 kPa, Bellows volumetry | – | 1378.9 | 1304.5 | 1207.5
351.9 K, 80000 kPa, Bellows volumetry | – | 1384.5 | 1309.5 | 1211.8
351.9 K, 90000 kPa, Bellows volumetry | – | 1389.8 | 1314.2 | 1215.7
351.9 K, 100000 kPa, Bellows volumetry | – | 1394.9 | 1318.9 | 1219.6
351.9 K, 110000 kPa, Bellows volumetry | – | 1400 | 1323.3 | 1223.4
351.9 K, 120000 kPa, Bellows volumetry | – | 1404.9 | 1327.8 | 1227.2
351.9 K, 130000 kPa, Bellows volumetry | – | 1409.6 | 1332 | 1230.8
351.9 K, 140000 kPa, Bellows volumetry | – | 1414.2 | 1336.1 | 1234.5
351.9 K, 150000 kPa, Bellows volumetry | – | 1418.7 | 1340.3 | 1237.9
351.9 K, 160000 kPa, Bellows volumetry | – | 1423.2 | 1344.2 | 1241.4
351.9 K, 170000 kPa, Bellows volumetry | – | 1427.5 | 1348 | 1244.7
351.9 K, 180000 kPa, Bellows volumetry | – | 1431.7 | 1351.8 | 1247.9
351.9 K, 190000 kPa, Bellows volumetry | – | 1435.8 | 1355.6 | 1251.2
351.9 K, 200000 kPa, Bellows volumetry | – | 1439.9 | 1359.2 | 1254.3
353.15 K, 100 kPa, Vibrating tube method | 1384.8 | 1331.1 | 1263 | 1173.6
363.15 K, 100 kPa, Vibrating tube method | 1375.6 | 1322.6 | 1255.4 | 1167.1
372.1 K, 10000 kPa, Bellows volumetry | – | 1322.9 | 1255 | 1165.9
372.1 K, 20000 kPa, Bellows volumetry | – | 1330.9 | 1261.8 | 1171.6
372.1 K, 30000 kPa, Bellows volumetry | – | 1338.3 | 1268.4 | 1176.9
372.1 K, 40000 kPa, Bellows volumetry | – | 1345.3 | 1274.6 | 1181.9
372.1 K, 50000 kPa, Bellows volumetry | – | 1352 | 1280.4 | 1186.7
372.1 K, 60000 kPa, Bellows volumetry | – | 1358.3 | 1286 | 1191.4
372.1 K, 70000 kPa, Bellows volumetry | – | 1364.4 | 1291.3 | 1195.9
372.1 K, 80000 kPa, Bellows volumetry | – | 1370.4 | 1296.5 | 1200.3
372.1 K, 90000 kPa, Bellows volumetry | – | 1375.8 | 1301.4 | 1204.4
372.1 K, 100000 kPa, Bellows volumetry | – | 1381.2 | 1306.1 | 1208.5
372.1 K, 110000 kPa, Bellows volumetry | – | 1386.4 | 1310.9 | 1212.5
372.1 K, 120000 kPa, Bellows volumetry | – | 1391.5 | 1315.4 | 1216.3
372.1 K, 130000 kPa, Bellows volumetry | – | 1396.2 | 1319.8 | 1220
372.1 K, 140000 kPa, Bellows volumetry | – | 1401.1 | 1324.2 | 1223.7
372.1 K, 150000 kPa, Bellows volumetry | – | 1405.7 | 1328.4 | 1227.3
372.1 K, 160000 kPa, Bellows volumetry | – | 1410.3 | 1332.5 | 1230.8
372.1 K, 170000 kPa, Bellows volumetry | – | 1414.7 | 1336.4 | 1234.1
372.1 K, 180000 kPa, Bellows volumetry | – | 1419 | 1340.3 | 1237.6
372.1 K, 190000 kPa, Bellows volumetry | – | 1423.3 | 1344.1 | 1240.8
372.1 K, 200000 kPa, Bellows volumetry | – | 1427.6 | 1347.9 | 1244.1
373.15 K, 100 kPa, Vibrating tube method | 1366.7 | 1314 | 1247.5 | 1160.2
392.3 K, 10000 kPa, Bellows volumetry | – | 1306.7 | 1240.1 | 1152.9
392.3 K, 20000 kPa, Bellows volumetry | – | 1315.1 | 1247.4 | 1158.8
392.3 K, 30000 kPa, Bellows volumetry | – | 1323.1 | 1254.3 | 1164.4
392.3 K, 40000 kPa, Bellows volumetry | – | 1330.5 | 1260.9 | 1169.7
392.3 K, 50000 kPa, Bellows volumetry | – | 1337.5 | 1266.9 | 1174.8
392.3 K, 60000 kPa, Bellows volumetry | – | 1344.2 | 1272.8 | 1179.6
392.3 K, 70000 kPa, Bellows volumetry | – | 1350.5 | 1278.4 | 1184.3
392.3 K, 80000 kPa, Bellows volumetry | – | 1356.6 | 1283.8 | 1188.8
392.3 K, 90000 kPa, Bellows volumetry | – | 1362.4 | 1288.8 | 1193.1
392.3 K, 100000 kPa, Bellows volumetry | – | 1368 | 1293.8 | 1197.3
392.3 K, 110000 kPa, Bellows volumetry | – | 1373.3 | 1298.7 | 1201.5
392.3 K, 120000 kPa, Bellows volumetry | – | 1378.6 | 1303.4 | 1205.5
392.3 K, 130000 kPa, Bellows volumetry | – | 1383.7 | 1308 | 1209.3
392.3 K, 140000 kPa, Bellows volumetry | – | 1388.7 | 1312.4 | 1213.1
392.3 K, 150000 kPa, Bellows volumetry | – | 1393.5 | 1316.8 | 1216.8
392.3 K, 160000 kPa, Bellows volumetry | – | 1398.2 | 1320.9 | 1220.4
392.3 K, 170000 kPa, Bellows volumetry | – | 1402.8 | 1325.1 | 1224
392.3 K, 180000 kPa, Bellows volumetry | – | 1407.1 | 1329.2 | 1227.4
392.3 K, 190000 kPa, Bellows volumetry | – | 1411.5 | 1333 | 1230.8
392.3 K, 200000 kPa, Bellows volumetry | – | 1415.9 | 1336.9 | 1234.2
